Our source for the TGI values is PubChem BioAssay (NCI).

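Growth conditions: 96-well plates. Treatment: test compound, 48 hours, 5 concentrations. Analysis: linear interpolation between bracketing concentrations; unreached endpoints set to highest concentration. At the TGI there is no net growth.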

Test systems include SK-MEL-5 melanoma; NCI-H522 lung; U251 CNS; SR leukemia; M14 melanoma; EKVX NSCLC; UACC-62 melanoma; MOLT-4 leukemia; HCC-2998 colon; DMS 114 small cell lung; K-562 leukemia; SF-295 CNS; SNB-75 CNS; SN12C renal; HCT-15 colon; LOX IMVI melanoma.
Holding throughout (test): NCI-60 cell line screen, 48 h

In the case of `Cc1ccc(/C=C/C(=O)C(C)C)cc1`, the TGI with SK-MEL-5 melanoma was above 100 µM; in the assay with NCI-H522 lung, above 100 µM; in the assay with U251 CNS, above 100 µM; in the assay on SR leukemia, 98.4 µM; in the assay on M14 melanoma it was above 100 µM; in the assay with EKVX NSCLC, above 100 µM. Further, the TGI in the assay with UACC-62 melanoma is above 100 µM; in the assay with MOLT-4 leukemia, 76.9 µM; in the assay on HCC-2998 colon, above 100 µM; with DMS 114 small cell lung, above 100 µM; in the assay on K-562 leukemia, above 100 µM; in the assay with SF-295 CNS, above 100 µM. In the assay on SNB-75 CNS, this molecule showed a TGI above 100 µM.

As to `Nc1ccc2ncc(Nc3ccc(F)cc3)nc2c1`, the TGI in the assay on SN12C renal, with SK-MEL-5 melanoma, in the assay on HCT-15 colon, in the assay with NCI-H522 lung, with U251 CNS and in the assay on SR leukemia was above 100 µM in each case. Also, the TGI with M14 melanoma, with EKVX NSCLC, in the assay with LOX IMVI melanoma, in the assay on MOLT-4 leukemia, in the assay on HCC-2998 colon and with DMS 114 small cell lung was above 100 µM each time. Also, the TGI in the assay on K-562 leukemia, in the assay with SF-295 CNS and with SNB-75 CNS was above 100 µM each time.

For the molecule `COc1cc(C(C#N)NNC(=O)Cc2ccccc2)cc(OC)c1OC` (stereo not given), the TGI with SN12C renal, in the assay on SK-MEL-5 melanoma, with HCT-15 colon, with NCI-H522 lung, in the assay with U251 CNS and with SR leukemia was above 100 µM in each case. Besides, the TGI in the assay with M14 melanoma, in the assay on UACC-62 melanoma, in the assay on LOX IMVI melanoma, in the assay on MOLT-4 leukemia, in the assay with DMS 114 small cell lung and with K-562 leukemia was above 100 µM each time. In addition, the TGI with SF-295 CNS and with SNB-75 CNS was above 100 µM throughout.

Regarding `COc1cc2c(cc1O)[C@H](C)C(c1ccccc1OC)O2` (stereo not given in full), the TGI in the assay on SK-MEL-5 melanoma was 19.7 µM; in the assay on HCT-15 colon, 12.1 µM; in the assay with NCI-H522 lung, 9.25 µM; in the assay with U251 CNS, 8.01 µM; in the assay with M14 melanoma, above 100 µM; in the assay on EKVX NSCLC, above 100 µM. The TGI in the assay on UACC-62 melanoma is above 100 µM; with LOX IMVI melanoma, 26.7 µM; in the assay with HCC-2998 colon, 90 µM; with DMS 114 small cell lung, 11 µM; in the assay with K-562 leukemia it was above 100 µM; with SF-295 CNS it was 22.9 µM. The molecule further gave a TGI in the assay on SNB-75 CNS of 6.48 µM.

Take `O=C(CSc1nnc(Cc2ccccc2)o1)Nc1ccccc1Cl`: the TGI with SN12C renal, in the assay with SK-MEL-5 melanoma, in the assay with HCT-15 colon, in the assay with NCI-H522 lung, in the assay with U251 CNS and in the assay on M14 melanoma was above 100 µM each time. Further, the TGI in the assay on UACC-62 melanoma, in the assay on LOX IMVI melanoma, in the assay with MOLT-4 leukemia, with HCC-2998 colon, with DMS 114 small cell lung and in the assay with K-562 leukemia was above 100 µM throughout. The molecule also came in with a TGI with SF-295 CNS above 100 µM.

For the molecule `COc1ccc([C@@H]2CC(=O)NCCCNCCCCNCCCN2)cc1`, the TGI in the assay with SN12C renal, in the assay with SK-MEL-5 melanoma, in the assay on HCT-15 colon, in the assay on NCI-H522 lung, with U251 CNS and in the assay with SR leukemia was above 100 µM throughout. The TGI in the assay on M14 melanoma, in the assay on EKVX NSCLC, in the assay on UACC-62 melanoma, in the assay on MOLT-4 leukemia, in the assay on HCC-2998 colon and with DMS 114 small cell lung was above 100 µM throughout. Also, the TGI in the assay with K-562 leukemia, with SF-295 CNS and in the assay on SNB-75 CNS was above 100 µM in each case.

In the case of `Fc1ccc2c(c1)SC1Oc3ccccc3-c3c1c-2nn3-c1ccccc1` (stereo not given), the TGI in the assay with NCI-H522 lung, with U251 CNS, with EKVX NSCLC, in the assay on LOX IMVI melanoma, in the assay on MOLT-4 leukemia and in the assay on HCC-2998 colon was above 100 µM each time. Further, the TGI in the assay with DMS 114 small cell lung, in the assay on K-562 leukemia, in the assay with SF-295 CNS and with SNB-75 CNS was above 100 µM in each case.

Turning to `CCOc1ccccc1NC(=O)C(=O)C(C(=O)c1ccc2ccccc2c1)C1OC(=O)c2ccccc21` (stereo not given), the TGI is 37.4 µM in the assay on SN12C renal; 24.5 µM in the assay with SK-MEL-5 melanoma; 33.6 µM in the assay with HCT-15 colon; 27.4 µM in the assay with NCI-H522 lung; 22.5 µM with U251 CNS; 36.4 µM with M14 melanoma. Moreover, the TGI with EKVX NSCLC came to 77.3 µM; in the assay with UACC-62 melanoma, 21.3 µM; with LOX IMVI melanoma it was 29.1 µM; in the assay on MOLT-4 leukemia, 30.3 µM; in the assay with HCC-2998 colon it was 22.9 µM; in the assay with DMS 114 small cell lung, 33.6 µM. In addition, the values for the TGI in the assay with K-562 leukemia and in the assay on SNB-75 CNS were above 100 µM and 31 µM, respectively.

Regarding `CN/C=C(/c1ccc(OC)cc1)C(O)c1ccc(OC)c(OC)c1` (stereo not given), the TGI in the assay with SN12C renal, in the assay with SK-MEL-5 melanoma, in the assay on HCT-15 colon, in the assay on NCI-H522 lung, with U251 CNS and with SR leukemia was above 100 µM throughout. Besides, the TGI in the assay with M14 melanoma, in the assay with EKVX NSCLC, in the assay on UACC-62 melanoma, in the assay on LOX IMVI melanoma, with MOLT-4 leukemia and in the assay with HCC-2998 colon was above 100 µM throughout. In addition, the TGI in the assay with DMS 114 small cell lung, in the assay on K-562 leukemia, with SF-295 CNS and in the assay with SNB-75 CNS was above 100 µM in each case.

Turning to `c1ccc(CCCC2Sc3cccc4cccc(c34)S2)cc1`, the TGI with SN12C renal, in the assay on SK-MEL-5 melanoma, in the assay with HCT-15 colon, with NCI-H522 lung, in the assay on U251 CNS and in the assay with M14 melanoma was above 100 µM throughout. For the same molecule, the TGI in the assay with EKVX NSCLC, in the assay with UACC-62 melanoma, in the assay on LOX IMVI melanoma, in the assay with HCC-2998 colon, in the assay with DMS 114 small cell lung and in the assay with K-562 leukemia was above 100 µM in each case. Besides, the TGI with SF-295 CNS and with SNB-75 CNS was above 100 µM throughout.

Turning to `Cc1nc2nn(Cc3ccccc3)cc2c(=O)o1`, the TGI in the assay with SN12C renal, in the assay on SK-MEL-5 melanoma, in the assay with HCT-15 colon, in the assay with U251 CNS, with EKVX NSCLC and in the assay on UACC-62 melanoma was above 100 µM throughout. Moreover, the TGI in the assay with LOX IMVI melanoma, in the assay with MOLT-4 leukemia, with HCC-2998 colon, with DMS 114 small cell lung, with K-562 leukemia and with SF-295 CNS was above 100 µM each time. For the same molecule, the TGI in the assay on SNB-75 CNS is above 100 µM.

`COc1ccc(OC)c(/C=C/C(=O)C(C)(C)C)c1`: the TGI with SN12C renal was 45.4 µM; with SK-MEL-5 melanoma it was 29.1 µM; in the assay on HCT-15 colon it was 41.2 µM; in the assay with NCI-H522 lung, 30.4 µM; in the assay on U251 CNS, 43.1 µM; with M14 melanoma it was 30.2 µM. Moreover, the TGI worked out at 43.9 µM in the assay with EKVX NSCLC; 23.4 µM in the assay with UACC-62 melanoma; 40.6 µM with LOX IMVI melanoma; 55.1 µM with MOLT-4 leukemia; 39.7 µM in the assay with HCC-2998 colon; 32.1 µM in the assay with DMS 114 small cell lung. Besides, the TGI with K-562 leukemia worked out at 55.8 µM; in the assay on SF-295 CNS, 67.4 µM; with SNB-75 CNS, 56.8 µM.

As to `CCOC(=O)C1(Br)C(c2ccccc2)NC(=O)N(C2OC(COC(=O)c3ccccc3)C(OC(=O)c3ccccc3)C2OC(=O)c2ccccc2)C1(C)Br` (stereo not given), the TGI in the assay with SN12C renal is above 100 µM; in the assay on SK-MEL-5 melanoma, 31.3 µM; with HCT-15 colon, above 50.1 µM; in the assay on NCI-H522 lung, 20.3 µM; in the assay on U251 CNS, above 100 µM; in the assay with M14 melanoma it was above 63.6 µM. The TGI in the assay on EKVX NSCLC is above 94.5 µM; in the assay with UACC-62 melanoma, 60.1 µM; in the assay with LOX IMVI melanoma it was above 100 µM; in the assay on MOLT-4 leukemia, 59 µM; in the assay on HCC-2998 colon it was above 100 µM; in the assay with DMS 114 small cell lung it was 49.6 µM. For the same molecule, the TGI with K-562 leukemia was 19.3 µM; in the assay with SF-295 CNS, above 100 µM; in the assay on SNB-75 CNS, above 90.7 µM.

For the molecule `Nc1ccc(C(=O)NN2C(=O)C(Cl)C2c2cc(Br)cc(Br)c2O)cc1` (stereo not given), the TGI in the assay with SK-MEL-5 melanoma is 65.5 µM; in the assay on HCT-15 colon, above 100 µM; with NCI-H522 lung, above 100 µM; with U251 CNS, above 100 µM; in the assay on SR leukemia it was above 100 µM; in the assay with M14 melanoma, 28.2 µM. For the same molecule, the TGI was 59.5 µM in the assay on EKVX NSCLC; 24.8 µM in the assay on UACC-62 melanoma; 33.8 µM with LOX IMVI melanoma; above 100 µM with MOLT-4 leukemia; above 100 µM with HCC-2998 colon; 25.4 µM in the assay on DMS 114 small cell lung. Besides, the TGI in the assay with SF-295 CNS and in the assay with SNB-75 CNS was above 100 µM throughout.

Consider `CC(OC1CC(=O)CC2C(=O)C=CC(=O)C12)c1ccccc1` (stereo not given), for which the TGI in the assay with SN12C renal amounted to 33.2 µM; with SK-MEL-5 melanoma, 33.6 µM; in the assay on HCT-15 colon, 31.4 µM; in the assay with NCI-H522 lung, 2.98 µM; with U251 CNS, 27.9 µM; in the assay on SR leukemia, 42.8 µM. Further, the TGI was 33.3 µM in the assay on M14 melanoma; 30.6 µM in the assay on EKVX NSCLC; 29.7 µM in the assay on UACC-62 melanoma; 33.3 µM in the assay with LOX IMVI melanoma; above 49.2 µM in the assay with MOLT-4 leukemia; 29.7 µM with HCC-2998 colon. Besides, the TGI was 23 µM in the assay on DMS 114 small cell lung, above 100 µM in the assay with K-562 leukemia, 33 µM with SF-295 CNS and above 57.7 µM in the assay with SNB-75 CNS.

Take `O=[N+]([O-])c1cc2c(cc1O)[nH]c1cccc([N+](=O)[O-])c12`: the TGI with SN12C renal, in the assay on SK-MEL-5 melanoma, in the assay on HCT-15 colon, in the assay with NCI-H522 lung, in the assay with SR leukemia and in the assay on M14 melanoma was above 100 µM each time. Besides, the TGI in the assay on LOX IMVI melanoma, with MOLT-4 leukemia, in the assay with HCC-2998 colon, with DMS 114 small cell lung, in the assay with K-562 leukemia and with SF-295 CNS was above 100 µM each time. This molecule showed a TGI with SNB-75 CNS above 100 µM.

For `CC(C)c1cccc(C(C)C)c1NC(=O)C(=O)CC(=O)CC(c1ccccc1)c1c(O)c2ccccc2oc1=O` (stereo not given), the TGI with SN12C renal, in the assay with SK-MEL-5 melanoma, in the assay with NCI-H522 lung, in the assay with SR leukemia, with M14 melanoma and in the assay with EKVX NSCLC was above 100 µM throughout. Moreover, the TGI in the assay on UACC-62 melanoma, in the assay on MOLT-4 leukemia, in the assay with HCC-2998 colon, in the assay on DMS 114 small cell lung, in the assay with K-562 leukemia and in the assay on SF-295 CNS was above 100 µM each time.
